Data reported in patent US8507539B2, “Potassium channel blockers and uses thereof” (Bionomics Limited, priority 2008, dated 2013).
pIC50: −log10 of the molar value. Where two headings read alike, the source gives them in different places.

Assays:
Format in all cases: cell-based
hKv1.3 = hKv1.3 (Homo sapiens, UniProt P22001); assay: Whole-cell patch-clamp block of Kv1.3 current in CHO cells stably expressing hKv1.3
Experimental: (§1) The effectiveness of the generated compounds in blocking the Kv1.3 current was assayed on CHO cells stably expressing hKv1.3. Cells were grown in F12 Kaighns' medium supplemented with 10% fetal calf serum, 2 mM L-glutamine, 1 mM Na^+ pyruvate, 100 units/ml penicillin, 100 Fg/ml streptomycin and 500 μg/ml G418 (to keep them under selection pressure). Kv1.3 currents were measured using the whole-cell configuration of the patch-clamp technique and were evoked by 500 ms depolarising voltage pulses to +40 mV from a holding potential of −80 mV at 30 sec intervals. Cells were continuously bathed in Ringers solution containing (mM): 160 NaCl, 4.5 KCl, 2.5 CaCl2, 1 MgCl2, 10 HEPES, pH 7.4, 290-310 mOsm. The internal (pipette) solution contained (mM): 134 KF, 2 MgCl2, 10 HEPES, 10 EGTA (pH 7.2, 290-310 mOsm). Series resistance compensation (60-80%) was applied when the peak current amplitude exceeded 2 nA. Compounds initially dissolved in DMSO were diluted in bath solution (final DMSO concentration 0.5%) and applied directly to the recording chamber at increasing concentrations allowing ample time for steady state block to be achieved between each concentration. Each compound was tested at 4-5 different concentrations in triplicate. IC50 values were determined by fitting the average normalised reduction of the current integral to the Hill equation.

hKv1.1 = molecular target: T1, hKv1.1 (Homo sapiens, UniProt Q09470); assay: Whole-cell patch-clamp inhibition of Kv1.1 currents in CHO cells stably transfected with hKv1.1; conditions: from IC50 values, CHO-hKv1.1 vs CHO-hKv1.3
T1 construct: expressed in transfected cells
Experimental: as §1
(§2) IC50 values for inhibition of Kv1.3 currents were determined as described above. IC50 values for inhibition of Kv1.1 and Kv1.5 currents were determined by the method above using Chinese Hamster Ovary (CHO) cells stably transfected with hKv1.1 and hKv1.5.

hKv1.5 = molecular target: T2, hKv1.5 (Homo sapiens, UniProt P22460); assay: Whole-cell patch-clamp inhibition of Kv1.5 currents in CHO cells stably transfected with hKv1.5; conditions: from IC50 values, CHO-hKv1.5 vs CHO-hKv1.3
T2 construct: expressed in transfected cells
Experimental: as §1, §2

[1] = CHO cells stably expressing hKv1.3, whole-cell patch clamp, reported as ranges, read-out: IC50 (Kv1.3)
[2] = IC50 for inhibition of Kv1.3 currents, CHO-hKv1.3, read-out: Potency for Kv1.3

T1 sequence (Q09470 whole entry): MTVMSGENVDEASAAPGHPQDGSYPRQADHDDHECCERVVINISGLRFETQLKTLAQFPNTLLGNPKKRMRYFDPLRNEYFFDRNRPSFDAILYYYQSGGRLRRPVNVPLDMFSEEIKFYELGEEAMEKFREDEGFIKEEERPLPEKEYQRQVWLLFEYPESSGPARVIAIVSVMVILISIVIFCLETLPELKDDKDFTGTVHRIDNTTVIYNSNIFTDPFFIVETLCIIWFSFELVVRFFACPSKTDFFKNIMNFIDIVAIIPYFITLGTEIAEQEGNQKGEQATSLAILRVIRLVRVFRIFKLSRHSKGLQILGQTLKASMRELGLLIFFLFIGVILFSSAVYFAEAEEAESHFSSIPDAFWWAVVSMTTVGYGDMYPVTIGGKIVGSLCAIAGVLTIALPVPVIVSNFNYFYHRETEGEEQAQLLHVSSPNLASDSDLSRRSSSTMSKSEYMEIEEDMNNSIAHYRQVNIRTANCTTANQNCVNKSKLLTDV
Sequence of hKv1.3 (P22001 whole entry): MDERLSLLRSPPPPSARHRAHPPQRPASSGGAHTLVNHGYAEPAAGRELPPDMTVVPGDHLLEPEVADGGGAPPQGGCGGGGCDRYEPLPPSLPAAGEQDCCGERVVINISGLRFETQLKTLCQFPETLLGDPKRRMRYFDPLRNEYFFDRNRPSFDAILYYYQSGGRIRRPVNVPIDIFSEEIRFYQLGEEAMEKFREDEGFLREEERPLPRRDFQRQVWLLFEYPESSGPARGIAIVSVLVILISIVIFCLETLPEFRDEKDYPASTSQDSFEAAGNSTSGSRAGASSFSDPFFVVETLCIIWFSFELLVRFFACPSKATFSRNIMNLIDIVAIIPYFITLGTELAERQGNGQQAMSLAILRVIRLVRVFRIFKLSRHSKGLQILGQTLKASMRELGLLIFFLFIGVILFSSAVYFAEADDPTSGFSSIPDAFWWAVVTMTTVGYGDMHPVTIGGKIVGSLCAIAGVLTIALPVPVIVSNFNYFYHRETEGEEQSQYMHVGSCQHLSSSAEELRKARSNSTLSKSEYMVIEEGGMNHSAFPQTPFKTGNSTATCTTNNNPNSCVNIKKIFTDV
T2 sequence (P22460 whole entry): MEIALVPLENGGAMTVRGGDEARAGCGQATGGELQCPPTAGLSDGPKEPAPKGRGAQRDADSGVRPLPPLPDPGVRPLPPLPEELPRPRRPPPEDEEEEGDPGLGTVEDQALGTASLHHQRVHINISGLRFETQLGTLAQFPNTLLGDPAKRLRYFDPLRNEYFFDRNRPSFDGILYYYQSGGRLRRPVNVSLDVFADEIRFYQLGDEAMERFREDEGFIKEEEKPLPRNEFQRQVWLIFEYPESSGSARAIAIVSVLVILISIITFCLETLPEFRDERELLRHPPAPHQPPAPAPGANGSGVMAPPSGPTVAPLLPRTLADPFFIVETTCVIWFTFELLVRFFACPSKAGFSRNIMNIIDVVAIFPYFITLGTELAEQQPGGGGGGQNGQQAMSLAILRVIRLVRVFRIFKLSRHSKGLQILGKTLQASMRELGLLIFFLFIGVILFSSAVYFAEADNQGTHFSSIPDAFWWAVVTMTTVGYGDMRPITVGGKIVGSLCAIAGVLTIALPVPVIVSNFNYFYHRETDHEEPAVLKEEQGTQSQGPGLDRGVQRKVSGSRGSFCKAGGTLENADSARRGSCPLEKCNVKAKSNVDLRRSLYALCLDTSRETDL

SMILES	pIC50 (hKv1.3; [1])	pIC50 (hKv1.3; [2])	Selectivity for Kv1.3 over Kv1.1 (hKv1.1) [fold]	Selectivity for Kv1.3 over Kv1.5 (hKv1.5) [fold]
CC(=O)c1c(OCCN2CCSCC2)c(OCCC(C)c2ccc(F)cc2)c2oc(C)nc2c1C (centres unmarked) [Example 13]	> 7.30	> 7.30	15	11
CC(=O)c1c(OCCNC2CCCCC2)c(OCCC(C)c2ccc(F)cc2)c2oc(C)nc2c1C (centres unmarked) [Example 18, 5-Acetyl-6-(2-cyclohexylamino-ethoxy)-7-[3-(4-fluorophenyl)butoxy]-2,4-dimethyl-benzooxazole]	> 7.30	> 7.30	11	12
CC(=O)c1c(OCCN2CCCCC2)c(OCCC(C)c2ccc(F)cc2)c2oc(C)nc2c1C (centres unmarked) [Example 42, 5-Acetyl-7-[3-(4-fluorophenyl)butoxy]-6-[2-(piperidin-1-yl)-ethoxy]-2,4-dimethyl-benzooxazole]	> 7.30	> 7.30	25	24
CC(=O)c1c(OCCN2CCCC(F)(F)C2)c(OCCC(C)c2ccc(F)cc2)c2oc(C(F)F)nc2c1C (centres unmarked) [Example 31b, 5-Acetyl-7-[3-(4-fluorophenyl)butoxy]-6-(2-(3,3-difluoropiperidin-1-yl)-ethoxy)-4-methyl-2-difluoromethyl-benzo[d]oxazole]	> 7.30	> 7.30	21	29
CC(=O)c1c(OCC[n+]2ccc(N)cc2)c(OCCC(C)c2ccc(F)cc2)c2oc(C)nc2c1C (centres unmarked) [Example 21, 5-Acetyl-6-(2-(4-aminopyridin-1-ium)ethoxy)-7-[3-(4-fluorophenyl)butoxy]-2,4-dimethyl-benzo[d]oxazole chloride]	< 6.00			
CC(=O)c1c(OCCc2ccccn2)c(OCCC(C)c2ccc(F)cc2)c2oc(C(F)(F)F)nc2c1C (centres unmarked) [Example 29, 5-Acetyl-7-[3-(4-fluorophenyl)butoxy]-4-methyl-6-(2-pyridin-2-yl-ethoxy)-2-trifluoromethyl-benzo[d]oxazole]	6.70 to 7.30			
CC(=O)c1c(OCCN2CCOCC2)c(OCCCc2ccccc2)c2oc(C)nc2c1Cl [Example 37j]	6.00 to 6.70			
CC(=O)c1c(OCCNC(C)(C)C)c(OCCC(C)c2ccc(F)cc2)c2oc(C)nc2c1C (centres unmarked) [Example 26, 5-Acetyl-6-(2-(N-tertbutylamino)ethoxy)-7-[3-(4-fluorophenyl)butoxy]-2,4-dimethyl-benzo[d]oxazole]	6.00 to 6.70			
CC(=O)c1c(OC2CCN(C3CCCC3)CC2)c(OCCC(C)c2ccc(F)cc2)c2oc(C)nc2c1C (centres unmarked) [Example 40c]	6.70 to 7.30			
CC(=O)c1c(OCCn2ccnc2C)c(OCCC(C)c2ccc(F)cc2)c2oc(C(C)C)nc2c1C (centres unmarked) [Example 34, 5-Acetyl-7-[3-(4-fluorophenyl)butoxy]-2-isopropyl-1-4-methyl-6-[2-(2-methyl-1H-imidazol-1-yl)ethoxy]-benzo[d]oxazole]	6.00 to 6.70			
CC(=O)c1c(OCCn2ccnc2)c(OCCC(C)c2ccc(F)cc2)c2oc(C)nc2c1C (centres unmarked) [Example 10b, 5-Acetyl-7-[3-(4-fluorophenyl)butoxy]-6-(2-imidazol-1-yl-ethoxy)-2,4-dimethyl-benzooxazole]	6.70 to 7.30			
